# Results reported in US20250009695A1, “COMPOSITIONS AND METHODS FOR PROMOTING GLYCOGEN SYNTHASE ACTIVITY AND AUGMENTING GLYCOGEN STORAGE CAPABILITY” (NANJING NUTRABUILDING BIO-TECH CO., LTD., priority 2021, published 2025).
# Key:
# [1] = Effect of oral BAIBA administration on liver and skeletal muscle glycogen levels in obese (HFD) mice; format: in vivo; conditions: for hepatic glycogen levels (change, in words) / muscle glycogen levels (change, in words): HFD mice, better than exercise alone; for Liver glycogen / Muscle glycogen: obese mice on HFD, oral, week 9-16, P < 0.05 vs Model; for Liver glycogen: main lobe of liver; for Muscle glycogen: soleus muscle
# Excerpt: Post quarantine, animals were acclimatized for one week and subsequently the animals were randomized based on body weight stratification. Initially, mice were allocated broadly into two groups with one group receiving the Normal Diet (ND) representing normal subjects and the other receiving a defined High Fat Diet (HFD) representing obese subjects. The HFD was a defined lard-based diet procured from Research Diets, New Jersey, USA (Product No.—D12492, with 60 Kcal % from fat, 20 Kcal % from proteins, and 20 Kcal % from carbohydrates; Lot no. 20050105 and expiry date 30 Nov. 2020). The ND was a defined control diet procured from Hylasco Biotechnology Pvt. Ltd, manufactured by PMI Nutrition International (Batch no. MAY06202 and expiry date February 2021) containing similar nutrients as HFD but with 13 Kcal % from fat, 17 Kcal % from proteins, and […].
# The mice in the respective groups were put on ND and HFD for 8 weeks starting at age of ˜8 weeks. Food was offered twice a week by replacing the left-over feed with fresh feed and total weekly feed consumption was calculated and expressed as g feed/day/animal. Bodyweight was recorded once a week. At the end of 8 weeks (Day 57), mean body weight was measured, and animals were randomized based on body weight stratification and grouped separately into respective ND and HFD groups shown in the following experimental design. After the feeding/induction period (Week 1 to 8), the treatment period was from Week 9 to Week 16. A total of 36 mice were randomly grouped into six groups with n=6 in each group. Control Group: Normal mice, maintained on normal diet for 8 weeks, receiving neither exercise nor L-BAIBA treatment. Model Group: Obese mice, maintained on HFD for 8 weeks, receiving neither exercise nor L-BAIBA treatment. Exercise Group: Obese mice, maintained on HFD for 8 weeks, receiving only exercise and no L-BAIBA treatment. BAIBA Group: Obese mice, maintained on HFD for 8 weeks, receiving only LBAIBA treatment and no exercise. Exercise+BAIBA Group: Obese mice, maintained on HFD for 8 weeks, receiving L-BAIBA treatment and exercise.
# A regular treadmill (PowerMax) used by humans was availed for subjecting mice to daily exercise. A special lane box made of Perspex was used to fabricate the treadmill's running platform, forming a modified 6-lane rodent treadmill allowing 6 animals to run simultaneously. The mice in the specified groups were exercised daily throughout the treatment period (week 9-16). Exercise consisted of treadmill running at a speed 3.0 m/min with no inclination of the treadmill. Mice were allowed to freely explore the treadmill until each mouse had explored its lane and the treadmill was turned on with a slow increase in the speed until animals begin running at set speed. During the first week of the treatment period, as an introduction the mice were forced to running exercise for 8 minutes. Subsequently, the exercise duration was increased to 9 minutes during the following week. The exercise duration was finally set to 10 minutes daily for the rest of weeks. Exercise took place in a room separated from the actual housing room to which all mice were transferred and kept during the exercise procedures in order to minimize environmental confounders among the mice not subjected to the exercise protocol. […] Entire procedure was supervised by study personnel and no abnormal behavior of animals was observed. Forced treadmill exercise was carried out at preferred lux and noise free conditions.
# After completion of 8 weeks of experimentation (at the end of treatment on the day 114), animals were euthanized using an overdose of isoflurane (20% v/v in propylene glycol in a glass vacuum desiccator). The whole soleus muscle tissues and a sample of the main lobe of the liver were used to measure glycogen content using a modified protocol described in Methods in Enzymology Vol. III (Colowick and Kaplan, 1957).
# [2] = Effect of BAIBA on liver and skeletal muscle glycogen content in normal mice (ELISA kits); format: in vivo, C57 mice; conditions: oral gavage 2 weeks, compared to Exercise group; for glycogen levels in liver tissue (change, in words): FIG. 1; for glycogen levels in muscle tissue (change, in words): FIG. 3
# Experimental: (§1) SPF-grade male C57 mice (8 weeks old) were purchased from Nanjing Qinglongshan Laboratory Animal Breeding Center. Mice were housed individually in a steel cage in a room at 24° C. with a 12:12 h (Light:Dark) photoperiod and standard diet. Food and water were provided ad libitum. Forty mice were randomly divided into five groups. Control Group: Receiving neither exercise nor L-BAIBA treatment. Exercise Group: Receiving only exercise and no L-BAIBA treatment. BAIBA Group: Receiving only L-BAIBA treatment and no exercise. Pre-workout Group: Receiving L-BAIBA treatment before exercise. Post-workout Group: Receiving L-BAIBA treatment after exercise. Samples were administered orally (gavage volume was 0.1 mL/10 g per mouse) via a gavage tube for 2 weeks.
# (§2) The exercise consisted of treadmill running at a speed of 3.0 m/min with no inclination of the treadmill. Mice were allowed to freely explore the treadmill until each mouse had explored its lane and the treadmill was turned on with a slow increase in the speed until animals begin running at set speed. During the first week of the treatment period, as an introduction the mice were forced to running exercise for 8 minutes. Subsequently, the exercise duration was increased to 9 minutes during the following week. The exercise duration was finally set to 10 minutes daily for the rest of weeks.
# After 30 minutes of exercise on day 14th, mice were injected with 0.1 to 0.3 ml 1% thiopental sodium intraperitoneally in order to general anesthesia. The soleus of the hind limbs of mice and liver were taken to detect the content of glycogen contents and glycogen synthetase with ELISA Kits.
# [3] = tested on: glycogen synthetase; test: Effect of BAIBA on muscle glycogen synthetase content in normal mice (ELISA kits); format: in vivo, C57 mice; conditions: L-BAIBA administration, oral gavage 2 weeks, soleus, FIG. 4
# Experimental: as §1
# as §2, with “weeks. […]” for “weeks.”
# [4] = combination of L-BAIBA and exercise
# [5] = L-BAIBA treatment and daily treadmill exercise
# [6] = L-BAIBA treatment only, no exercise
# [7] = Post-workout Group (L-BAIBA after exercise)
# [8] = Pre-workout Group (L-BAIBA before exercise)
smiles,measurement,setting,value
"CC(CN)C(=O)O (stereo not drawn) [BAIBA, β-aminoisobutyric acid]","hepatic glycogen levels (change, in words)",[1]; L-BAIBA administration alone,significant increase
same,"muscle glycogen levels (change, in words)",[1]; L-BAIBA administration alone,significant increase
same,"hepatic glycogen levels (change, in words)",[1]; [4],significant increase
same,"muscle glycogen levels (change, in words)",[1]; [4],significant increase
same,Liver glycogen,[1]; [5],9.95 ± 0.61 mg/g tissue
same,Muscle glycogen,[1]; [5],0.29 ± 0.08 mg/g tissue
same,Liver glycogen,[1]; [6],9.66 ± 1.19 mg/g tissue
same,Muscle glycogen,[1]; [6],0.31 ± 0.06 mg/g tissue
same,"glycogen levels in liver tissue (change, in words)",[2]; [7],increase
same,"glycogen levels in muscle tissue (change, in words)",[2]; [7],increase
same,"glycogen levels in liver tissue (change, in words)",[2]; [8],increase
same,"glycogen levels in muscle tissue (change, in words)",[2]; [8],increase
same,"muscle glycogen synthetase content (change, in words)",[3],significant increase
